According to PMC4854315, “Discovery of a novel allosteric inhibitor-binding site in ERK5: comparison with the canonical kinase hinge ATP-binding site” (Acta Crystallographica. Section D, Structural Biology, 2016):

Key:
Assay in all cases: Z'-LYTE kinase panel
Type in all cases: biochemical
MAPK3 (ERK1) = biological target: T1, MAPK3 (ERK1) (Homo sapiens, UniProt P27361)
T1 construct: purchased ThermoFisher (SelectScreen, Z'-LYTE)
Procedure, shortened: (§1)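 Percentage inhibition comes from a one-concentration (10 µM) Z′-LYTE screen run under standard protocol over 225 panel kinases.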

CAMK4 (CaMKIV) = biological target: T2, CAMK4 (CaMKIV) (Homo sapiens, UniProt Q16566)
T2 construct: purchased ThermoFisher (SelectScreen, Z'-LYTE)
Procedure, shortened: as §1

SRPK1 = biological target: T3, SRPK1 (Homo sapiens, UniProt Q96SB4)
T3 construct: purchased ThermoFisher (SelectScreen, Z'-LYTE)
T3 sequence (Q96SB4 whole entry): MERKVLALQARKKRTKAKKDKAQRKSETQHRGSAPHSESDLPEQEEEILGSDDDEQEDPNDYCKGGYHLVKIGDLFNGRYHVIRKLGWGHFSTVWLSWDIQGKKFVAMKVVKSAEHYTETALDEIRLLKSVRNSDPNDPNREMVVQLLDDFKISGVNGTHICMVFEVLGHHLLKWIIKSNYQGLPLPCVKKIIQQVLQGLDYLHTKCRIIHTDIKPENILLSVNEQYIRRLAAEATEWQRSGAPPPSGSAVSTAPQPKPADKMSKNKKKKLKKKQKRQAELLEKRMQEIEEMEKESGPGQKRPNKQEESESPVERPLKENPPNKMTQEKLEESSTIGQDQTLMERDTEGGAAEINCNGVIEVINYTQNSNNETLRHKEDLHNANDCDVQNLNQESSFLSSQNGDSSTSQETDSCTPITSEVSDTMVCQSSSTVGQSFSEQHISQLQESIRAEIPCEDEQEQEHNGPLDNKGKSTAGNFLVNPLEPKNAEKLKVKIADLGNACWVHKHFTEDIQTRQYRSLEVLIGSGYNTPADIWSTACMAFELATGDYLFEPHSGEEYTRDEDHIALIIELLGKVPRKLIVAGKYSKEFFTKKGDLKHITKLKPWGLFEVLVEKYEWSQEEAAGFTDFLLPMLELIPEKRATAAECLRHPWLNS
Procedure, shortened: as §1

SGKL (SGK3) = biological target: T4, SGKL (SGK3) (Homo sapiens, UniProt Q96BR1)
T4 construct: purchased ThermoFisher (SelectScreen, Z'-LYTE)
T4 sequence (Q96BR1 1-496): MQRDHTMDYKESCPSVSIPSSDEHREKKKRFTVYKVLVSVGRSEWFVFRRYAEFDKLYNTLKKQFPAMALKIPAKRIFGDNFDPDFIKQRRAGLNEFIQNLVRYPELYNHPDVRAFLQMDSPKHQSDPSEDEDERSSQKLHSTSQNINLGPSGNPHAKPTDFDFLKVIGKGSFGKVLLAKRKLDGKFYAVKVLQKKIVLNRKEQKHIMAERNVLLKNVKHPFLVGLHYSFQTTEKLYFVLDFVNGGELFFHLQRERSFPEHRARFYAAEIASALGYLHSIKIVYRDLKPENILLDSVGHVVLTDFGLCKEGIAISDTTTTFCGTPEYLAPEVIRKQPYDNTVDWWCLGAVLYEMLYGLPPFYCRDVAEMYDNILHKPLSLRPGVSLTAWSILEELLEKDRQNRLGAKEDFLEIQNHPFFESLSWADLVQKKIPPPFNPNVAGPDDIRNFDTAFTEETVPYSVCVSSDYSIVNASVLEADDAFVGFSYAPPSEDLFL
Procedure, shortened: as §1

NEK4 = biological target: T5, NEK4 (Homo sapiens, UniProt P51957)
T5 construct: purchased ThermoFisher (SelectScreen, Z'-LYTE)
T5 sequence (P51957 whole entry): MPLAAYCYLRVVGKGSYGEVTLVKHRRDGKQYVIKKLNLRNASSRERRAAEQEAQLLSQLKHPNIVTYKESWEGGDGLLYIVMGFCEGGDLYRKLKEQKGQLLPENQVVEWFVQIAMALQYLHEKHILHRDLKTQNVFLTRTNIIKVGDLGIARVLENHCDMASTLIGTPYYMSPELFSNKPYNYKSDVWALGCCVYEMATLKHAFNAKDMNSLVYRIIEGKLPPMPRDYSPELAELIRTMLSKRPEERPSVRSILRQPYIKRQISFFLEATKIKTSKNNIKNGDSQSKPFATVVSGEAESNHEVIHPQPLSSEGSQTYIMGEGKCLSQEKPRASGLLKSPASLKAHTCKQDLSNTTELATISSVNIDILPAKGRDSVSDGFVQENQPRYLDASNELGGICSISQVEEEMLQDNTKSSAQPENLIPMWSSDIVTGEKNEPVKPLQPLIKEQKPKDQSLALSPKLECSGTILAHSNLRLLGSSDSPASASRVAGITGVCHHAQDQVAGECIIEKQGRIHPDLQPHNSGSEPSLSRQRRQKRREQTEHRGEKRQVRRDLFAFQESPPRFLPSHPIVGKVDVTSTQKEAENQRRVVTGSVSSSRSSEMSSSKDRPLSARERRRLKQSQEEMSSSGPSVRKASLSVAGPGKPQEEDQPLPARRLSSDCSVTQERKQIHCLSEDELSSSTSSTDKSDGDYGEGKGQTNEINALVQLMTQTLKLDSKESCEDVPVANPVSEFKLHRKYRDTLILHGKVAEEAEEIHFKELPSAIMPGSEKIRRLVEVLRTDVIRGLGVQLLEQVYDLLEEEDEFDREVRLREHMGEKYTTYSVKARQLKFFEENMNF
Procedure, shortened: as §1

AMPK A2/B1/G1 = biological target: T6, AMPK A2/B1/G1 (Homo sapiens, UniProt P54646)
T6 construct: purchased ThermoFisher (SelectScreen, Z'-LYTE)
T6 sequence (P54646 whole entry): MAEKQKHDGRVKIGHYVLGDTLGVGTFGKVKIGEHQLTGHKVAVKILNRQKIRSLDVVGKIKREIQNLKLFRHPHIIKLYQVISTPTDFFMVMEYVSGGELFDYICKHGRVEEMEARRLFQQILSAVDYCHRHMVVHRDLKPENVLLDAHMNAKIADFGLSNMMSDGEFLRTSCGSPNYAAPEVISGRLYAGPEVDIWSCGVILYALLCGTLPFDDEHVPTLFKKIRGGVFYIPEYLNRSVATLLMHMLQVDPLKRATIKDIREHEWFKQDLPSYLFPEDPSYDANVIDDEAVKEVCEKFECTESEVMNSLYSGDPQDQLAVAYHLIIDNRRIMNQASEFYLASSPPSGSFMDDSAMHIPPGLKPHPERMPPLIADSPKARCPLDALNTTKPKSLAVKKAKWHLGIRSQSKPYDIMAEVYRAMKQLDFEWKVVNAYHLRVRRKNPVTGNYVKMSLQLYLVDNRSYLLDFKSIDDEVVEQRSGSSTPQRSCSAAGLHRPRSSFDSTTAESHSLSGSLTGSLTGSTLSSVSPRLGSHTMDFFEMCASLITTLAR
T6 sequence (Q9Y478 whole entry partner): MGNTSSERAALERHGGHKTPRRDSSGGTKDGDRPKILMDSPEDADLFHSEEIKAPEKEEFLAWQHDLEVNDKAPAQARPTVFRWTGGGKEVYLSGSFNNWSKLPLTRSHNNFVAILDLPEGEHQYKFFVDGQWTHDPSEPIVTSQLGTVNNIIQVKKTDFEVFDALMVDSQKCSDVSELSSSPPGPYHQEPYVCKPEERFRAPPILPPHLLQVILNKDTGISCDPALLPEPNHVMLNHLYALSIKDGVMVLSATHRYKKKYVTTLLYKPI
T6 sequence (P54619 whole entry partner): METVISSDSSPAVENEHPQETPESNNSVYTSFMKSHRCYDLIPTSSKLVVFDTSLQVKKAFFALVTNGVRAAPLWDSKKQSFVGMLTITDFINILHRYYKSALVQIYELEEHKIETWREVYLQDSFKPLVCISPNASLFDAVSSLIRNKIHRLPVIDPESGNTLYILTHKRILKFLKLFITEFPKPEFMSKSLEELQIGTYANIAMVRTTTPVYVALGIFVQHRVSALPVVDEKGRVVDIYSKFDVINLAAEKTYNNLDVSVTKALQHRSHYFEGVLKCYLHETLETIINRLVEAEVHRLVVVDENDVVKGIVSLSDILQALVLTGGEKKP
Procedure, shortened: as §1

PDK1 Direct = biological target: T7, PDK1 Direct (Homo sapiens, UniProt O15530)
T7 construct: purchased ThermoFisher (SelectScreen, Z'-LYTE)
T7 sequence (O15530 1-556): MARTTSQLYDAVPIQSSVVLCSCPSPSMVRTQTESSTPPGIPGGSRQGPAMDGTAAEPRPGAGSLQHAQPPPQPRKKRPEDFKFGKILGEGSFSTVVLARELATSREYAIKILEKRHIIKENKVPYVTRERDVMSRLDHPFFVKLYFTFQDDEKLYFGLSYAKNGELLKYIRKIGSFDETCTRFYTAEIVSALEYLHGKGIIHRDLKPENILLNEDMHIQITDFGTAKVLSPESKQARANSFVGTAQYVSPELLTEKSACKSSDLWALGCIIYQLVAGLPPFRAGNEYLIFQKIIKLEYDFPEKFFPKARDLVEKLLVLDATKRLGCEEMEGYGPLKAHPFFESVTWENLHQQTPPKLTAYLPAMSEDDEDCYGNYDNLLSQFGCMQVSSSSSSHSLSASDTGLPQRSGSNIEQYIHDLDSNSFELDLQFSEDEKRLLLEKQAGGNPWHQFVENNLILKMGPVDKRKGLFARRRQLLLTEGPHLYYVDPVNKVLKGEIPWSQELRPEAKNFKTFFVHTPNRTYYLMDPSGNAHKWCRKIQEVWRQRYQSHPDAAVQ
Procedure, shortened: as §1

EGFR (ErbB1) = biological target: T8, EGFR (ErbB1) (Homo sapiens, UniProt P00533)
T8 construct: purchased ThermoFisher (SelectScreen, Z'-LYTE)
Procedure, shortened: as §1

ADRBK2 (GRK3) = biological target: T9, ADRBK2 (GRK3) (Homo sapiens, UniProt P35626)
T9 construct: purchased ThermoFisher (SelectScreen, Z'-LYTE)
T9 sequence (P35626 1-688): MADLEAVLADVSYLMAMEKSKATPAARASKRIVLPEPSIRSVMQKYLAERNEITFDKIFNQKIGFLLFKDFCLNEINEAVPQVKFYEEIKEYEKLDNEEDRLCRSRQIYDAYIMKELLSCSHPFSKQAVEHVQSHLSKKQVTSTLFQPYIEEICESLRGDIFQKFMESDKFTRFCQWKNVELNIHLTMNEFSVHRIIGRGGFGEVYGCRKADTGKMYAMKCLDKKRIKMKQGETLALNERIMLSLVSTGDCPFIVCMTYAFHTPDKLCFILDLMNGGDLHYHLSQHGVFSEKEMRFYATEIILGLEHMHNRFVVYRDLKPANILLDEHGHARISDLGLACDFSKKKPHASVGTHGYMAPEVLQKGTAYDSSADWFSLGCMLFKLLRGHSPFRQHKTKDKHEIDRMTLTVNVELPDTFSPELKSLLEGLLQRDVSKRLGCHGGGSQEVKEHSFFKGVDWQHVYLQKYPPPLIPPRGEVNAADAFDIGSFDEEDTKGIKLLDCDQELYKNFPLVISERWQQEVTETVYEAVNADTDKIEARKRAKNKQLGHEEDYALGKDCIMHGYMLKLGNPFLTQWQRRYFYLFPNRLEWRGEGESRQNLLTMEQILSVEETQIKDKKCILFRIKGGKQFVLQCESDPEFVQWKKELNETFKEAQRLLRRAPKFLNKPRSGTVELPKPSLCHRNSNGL
Procedure, shortened: as §1

AURKA (Aurora A) = biological target: T10, AURKA (Aurora A) (Homo sapiens, UniProt O14965)
T10 construct: purchased ThermoFisher (SelectScreen, Z'-LYTE)
T10 sequence (O14965 1-403): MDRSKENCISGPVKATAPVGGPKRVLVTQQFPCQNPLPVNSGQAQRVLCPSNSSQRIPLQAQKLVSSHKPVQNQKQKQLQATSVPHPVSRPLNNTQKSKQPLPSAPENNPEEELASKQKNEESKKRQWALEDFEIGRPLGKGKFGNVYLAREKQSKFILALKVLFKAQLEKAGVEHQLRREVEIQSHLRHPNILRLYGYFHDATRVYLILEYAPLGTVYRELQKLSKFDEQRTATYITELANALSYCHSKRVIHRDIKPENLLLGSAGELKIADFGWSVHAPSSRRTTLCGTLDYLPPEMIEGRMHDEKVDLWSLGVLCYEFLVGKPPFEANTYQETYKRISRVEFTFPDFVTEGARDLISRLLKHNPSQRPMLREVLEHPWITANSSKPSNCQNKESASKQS
Procedure, shortened: as §1

T1 sequence (P27361 whole entry): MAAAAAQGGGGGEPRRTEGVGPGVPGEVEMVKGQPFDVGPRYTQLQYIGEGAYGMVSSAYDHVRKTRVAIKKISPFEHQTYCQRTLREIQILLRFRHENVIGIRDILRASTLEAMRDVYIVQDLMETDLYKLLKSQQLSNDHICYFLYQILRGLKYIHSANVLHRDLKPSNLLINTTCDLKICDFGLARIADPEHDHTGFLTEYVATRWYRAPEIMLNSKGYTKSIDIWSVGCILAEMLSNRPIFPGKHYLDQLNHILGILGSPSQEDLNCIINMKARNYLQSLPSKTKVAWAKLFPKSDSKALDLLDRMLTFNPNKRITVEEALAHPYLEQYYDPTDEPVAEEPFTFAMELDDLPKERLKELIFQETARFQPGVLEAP

Row | Compound | inhibition at 10 µM (MAPK3 (ERK1)) [%] | inhibition at 10 µM (CAMK4 (CaMKIV)) [%] | inhibition at 10 µM (SRPK1) [%] | inhibition at 10 µM (SGKL (SGK3)) [%] | inhibition at 10 µM (NEK4) [%] | inhibition at 10 µM (AMPK A2/B1/G1) [%] | inhibition at 10 µM (PDK1 Direct) [%] | inhibition at 10 µM (EGFR (ErbB1)) [%] | inhibition at 10 µM (ADRBK2 (GRK3)) [%] | inhibition at 10 µM (AURKA (Aurora A)) [%] | MAPK3 (ERK1) % Inhibition (MAPK3 (ERK1); 10 µM compound, ATP Km app) [%] | CAMK4 (CaMKIV) % Inhibition (CAMK4 (CaMKIV); 10 µM compound, ATP Km app) [%] | SRPK1 % Inhibition (SRPK1; 10 µM compound, ATP Km app) [%] | SGKL (SGK3) % Inhibition (SGKL (SGK3); 10 µM compound, ATP Km app) [%] | NEK4 % Inhibition (NEK4; 10 µM compound, ATP Km app) [%] | AMPK A2/B1/G1 % Inhibition (AMPK A2/B1/G1; 10 µM compound, ATP Km app) [%] | PDK1 Direct % Inhibition (PDK1 Direct; 10 µM compound, ATP Km app) [%] | EGFR (ErbB1) % Inhibition (EGFR (ErbB1); 10 µM compound, ATP Km app) [%] | ADRBK2 (GRK3) % Inhibition (ADRBK2 (GRK3); 10 µM compound, ATP Km app) [%] | AURKA (Aurora A) % Inhibition (AURKA (Aurora A); 10 µM compound, ATP Km app) [%]
1 | Cc1ncc(-c2nc(Nc3ccc(C(=O)NCCN4CCCCC4)cc3)ncc2F)n1C(C)C [Compound 3] | 40 | 8 | 24 | 67 | 23 | 94 | 89 | 13 | 0.689 | 82 |  |  |  |  |  |  |  |  |  | 
2 | Cc1cc(Nc2nc(N)nn2C(=O)NC(C)C)ccc1Cl [Compound 5] | 7 | -10 | 2 | -11 | 17 | 29 | -1.67 | 1 | -7 | 78 |  |  |  |  |  |  |  |  |  | 
3 | XMD8-92 [Compound 2, reference compound] |  |  |  |  |  |  |  |  |  |  | 8 | 3 | -3 | 96 | 2.63 | 58 | -15 | -11 | -7 | 85
